# B1: CD300f: whole CD300f protein, conjugated onto micelles and tested as CPP (protein, UniProt Q8TDQ1 20-290, looked up)
# CMRF35-like molecule 1: TQITGPTTVNGLERGSLTVQCVYRSGWETYLKWWCRGAIWRDCKILVKTSGSEQEVKRDRVSIKDNQKNRTFTVTMEDLMKTDADTYWCGIEKTGNDLGVTVQVTIDPAPVTQEETSSSPTLTGHHLDNRHKLLKLSVLLPLIFTILLLLLVAASLLAWRMMKYQQKAAGMSPEQVLQPLEGDLCYADLTLQLAGTSPQKATTKLSSAQVDQVEVEYVTMASLPKEDISYASLTLGAEDQEPTYCNMGHLSSHLPGRGPEEPTEYSTISRP
# modifications: conjugated onto micelles
# notes: whole CD300f protein, conjugated onto micelles and tested as CPP
# How the values were obtained:
# [1] = system: binding of CD300f to plastic-immobilized SM; assay: Peptide inhibition of CD300f-Ig binding to plastic-immobilized sphingomyelin (epitope mapping); design: species or system human; conditions: co-incubation of peptide with CD300f-Ig, FIG. 1
# Excerpt: FIG. 1, related to Example 1, is a bar diagram showing the binding capacity of the indicated peptides to sphingomyelin (SM). They y-axis represents absorbance (%). “C” represents the control; “1” represents Peptide 1 of SEQ ID NO: 12; “2” represents Peptide 2 of SEQ ID NO: 13; “3” represents Peptide 3 of SEQ ID NO: 14; “4” represents Peptide 4 of SEQ ID NO: 15; “5” represents Peptide 5 of SEQ ID NO: 5; “6” represents Peptide 6 of SEQ ID NO: 6; “7” represents Peptide 7 of SEQ ID NO: 7; “8” represents Peptide 8 of SEQ ID NO: 16; and “9” represents Peptide 9 of SEQ ID NO: 17; and “10” represents Peptide 10 of SEQ ID NO: 18; FIG. 2, related to Example 1, is a bar diagram showing the binding capacity of the indicated peptides to sphingomyelin (SM). They y-axis represents absorbance (%). “A” represents the control; “B” represents DMSO; “C” represents Peptide 1; “D” represents Peptide 2; “E” represents Peptide 7; “F” represents Peptide 7 C5S (SEQ ID NO: 8); “G” represents Peptide 7 W3A (SEQ ID NO: 9); and “H” represents Peptide 7 R6G (SEQ ID NO: 10). In an attempt to identify the sites of interaction of CD300f with Sphingomyelin (SM), the inventors performed a peptide-based epitope mapping approach. 24 overlapping, 20mer peptides were designed with a 15-aa overlap between successive peptides covering the Ig and stem extracellular sequences of human CD300f. It was analyzed whether any of those 24 peptides could inhibit binding of CD300f to plastic-immobilized SM. Only three of them, peptides 5 (SEQ ID NO:5), 6 (SEQ ID NO:6) and 7 (SEQ ID NO:7), which contained the sequence […] Moreover, different amino acids of the sequence […] NO: 2) were mutated to try to map the interaction with the phospholipid.
# HCT116 cells = assay: Internalization of 5-DTAF labelled polymeric micelles by flow cytometry; type: cell-based; conditions: 1 mg/ml on 5-DTAF labelled Pluronic F127 micelles, vs non conjugated micelles, FIGS. 4 and 5
# Excerpt: FIG. 4, related to Example 2, is a diagram showing the cell internalization rates of polymeric micelles conjugated to the indicated peptides in HCT116 cells. The y-axis represents fluorescence intensity (F.U.) (Mean±SEM) and the x-axis represents the time (min).
# FIG. 5, related to Example 2, is a diagram showing the cell internalization rates of polymeric micelles conjugated to the indicated peptides in HCT116 cells. The y-axis represents fluorescence intensity (F.U.) (Mean±SEM) and the x-axis represents the time (min).
# Polymeric micelles (PM) were prepared using the film hydration technique. Briefly, the polymers were individually weighted and dissolved in a mixture of methanol:ethanol (1:1). […]
# Flow cytometry was used to verify the internalization of 5-DTAF-fluorescently labeled PM in MCF-7 and HCT116 cell lines. For the quantitative fluorescence-activated cell sorting (FACS), 2×10^4 cells were seeded in complete medium in 96 well plates for 24 hours to allow adhesion. […] The plate was analyzed in a cytometer Fortessa (BD Biosciences, USA). Data was analyzed with FCS Express 4 Flow research edition software (De Novo Software, Los Angeles, USA). […] For each sample, at least 10000 individual cells were collected and the mean fluorescence intensity was evaluated. […]
Molecule,inhibition of binding of CD300f to sphingomyelin (SM) [1],internalization of peptide- or protein-functionalized micelles (HCT116 cells)
GWETYLKWWCRGAIWRDCKI [Peptide 6],inhibited binding,
CVYRSGWETYLKWWCRGAIW [Peptide 5],inhibited binding,
LKWWCRGAIWRDCKILVKTS [Peptide 7],inhibited binding,
B1,,better CPPs than the ones currently available in the market

# Reference: US20230416334A1, “CELL-PENETRATING PEPTIDES” (FUNDACIÓ HOSPITAL UNIVERSITARI VALL D'HEBRON - INSTITUT DE …, priority 2020, published 2023)
